Data from article PMC9466626, “Discovery of new 1H-pyrazolo[3,4-d]pyrimidine derivatives as anticancer agents targeting EGFR^WT and EGFR^T790M” (Journal of Enzyme Inhibition and Medicinal Chemistry, 2022).

Key:
[1] = tested on: HCT-116; assay: In vitro anti-proliferative MTT assay, HCT-116; type: cell-based, human
Protocol: The cytotoxic activities of the synthesised compounds were assessed against two human cancer cell lines (lung, A549) and (colon HCT-116) using an MTT assay. These two cell lines were selected in this test due to the overexpression of EGFR in human lung and colon cancer cell lines[48]^,[49]. The tested cells were reported to have a high expression level of EGFR.
In vitro cytotoxicity was carried out for the synthesised compounds against A549, HCT-116, and WI-38 cell lines using the MTT assay protocol[52–55] as described in Supplementary data. […]
1.1. In vitro antiproliferative activities
The in vitro antiproliferative activities of all the synthesized compounds against two human tumor cell lines namely, (lung, A549) and (colon HCT-116) and one normal cell line (WI-38) were evaluated quantitatively as described in the literature, using MTT assay protocol . two commercially available drugs (erlotinib) were used in this test as positive controls. The anti-proliferative activity was assessed quantitatively as follows.
Human cancer cell lines were dropped in 96 -well plates at a density of 3-8 × 10^3 cells/well.
Next, the wells were incubated for 12 h in a 5% CO 2 incubator at 37 °C. Then, for each well, the growth medium was exchanged with 0.1 ml of fresh medium containing graded concentrations of the test compounds to be or equal DMSO and incubated for two days. Then 10 μl MTT solution ([…]) was added to each well, and the cells were incubated for additional 4 h. The crystals of MTT-formazan were dissolved in 100 μl of DMSO; the absorbance of each well was measured at 490 nm using an automatic ELISA reader system (TECAN, CHE). The IC 50 values were calculated using the nonlinear regression fitting models (Graph Pad, Prism Version 5). The data represented the mean of three independent experiments in triplicate and were expressed as means ± SD. The IC50 value was defined as the concentration at which 50% of the cells could survive.
The results were expressed as growth inhibitory concentration (IC50) values and […]

[2] = tested on: Bcl-2; assay: qRT-PCR gene expression of Bcl-2 in A549 cells; type: cell-based, human; settings: A549, 48 h
Protocol: The effect of compound 12b on the expression of BAX and Bcl‐2 was determined using qRT-PCR as described in Supplementary data[60–62].

CC(=NNc1nc(Nc2ccccc2)nc2c1cnn2-c1ccccc1)c1ccc(Cl)cc1 [Compound 12b, 4–(2-(1–(4-Chlorophenyl)ethylidene)hydrazinyl)-N,1-diphenyl-1H-pyrazolo[3,4-d]pyrimidin-6-amine]
IC50 ([1]; Homo sapiens, HCT-116, MTT, mean of three experiments, read-out: In vitro cytotoxicity IC50, HCT-116): 19.6 µM | HillSlope (best-fit value), HCT-116 ([1]; supplement IC50 graph): -0.3805 | LogIC50 (best-fit value), HCT-116 ([1]; supplement IC50 graph): 1.291 | Gene expression (Fold Change) Bcl-2 ([2]; control set to 1): 0.40 ± 0.08 Fold Change | fold decrease in Bcl-2 gene expression ([2]; vs untreated): 2.5 fold
